According to article PMC6630796, “Spiroindolone Analogues as Potential Hypoglycemic with Dual Inhibitory Activity on α-Amylase and α-Glucosidase” (Molecules, 2019):
Each block holds one compound with its values, some of them ahead of it.

Experiments:
[1] = biological target: T1, α-Glucosidase type 1 from baker’s yeast (Saccharomyces cerevisiae, UniProt P53341); assay: α-Glucosidase inhibition assay (p-nitrophenyl α-D-glucopyranoside, 405 nm); format: biochemical; conditions: for α-Glucosidase Selectivity: IC50 (α-amylase)/IC50 (α-glucosidase)
T1 construct: purchased Sigma-Aldrich G5003
T1 sequence (P53341 whole entry): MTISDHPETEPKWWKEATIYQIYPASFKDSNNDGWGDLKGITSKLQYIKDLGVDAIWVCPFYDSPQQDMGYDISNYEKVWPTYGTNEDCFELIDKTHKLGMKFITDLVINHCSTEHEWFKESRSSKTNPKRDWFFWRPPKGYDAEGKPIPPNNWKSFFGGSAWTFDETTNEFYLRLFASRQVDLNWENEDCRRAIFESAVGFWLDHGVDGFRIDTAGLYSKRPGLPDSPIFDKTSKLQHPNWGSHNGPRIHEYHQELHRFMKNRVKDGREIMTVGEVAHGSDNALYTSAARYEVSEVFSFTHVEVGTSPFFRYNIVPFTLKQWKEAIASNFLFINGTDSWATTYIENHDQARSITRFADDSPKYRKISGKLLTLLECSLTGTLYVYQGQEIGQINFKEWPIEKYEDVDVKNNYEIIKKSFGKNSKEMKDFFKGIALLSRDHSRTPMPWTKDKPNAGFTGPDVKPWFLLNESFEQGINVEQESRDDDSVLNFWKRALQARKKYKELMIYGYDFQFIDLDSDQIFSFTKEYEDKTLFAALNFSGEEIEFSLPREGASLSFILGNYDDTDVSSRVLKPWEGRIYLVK
Experimental: Sodium phosphate buffer (0.1 M) was adjusted by 0.1 N HCl to pH 7.0 with a pH meter (Thermo Fisher Scientific Inc., Waltham, MA, USA). p-Nitrophenyl α-D-glucopyranoside (10 mM) and α-glucosidase solutions (1 U/mL) were solubilized in 0.1 M sodium phosphate buffer (pH 7.0). All the reagents were manufactured shortly before use and warmed to 37 °C in a water bath. Sodium phosphate buffer (0.1 M, 158 μL per well) was added to a 96-well plate. α-Glucosidase (20 μL) and 2 μL of sample were added to 20 μL of p-nitrophenyl α-D-glucopyranoside. In the 200-μL final reaction volume (0.02 U/well, 0.1 U/mL) the substrate concentration was adjusted to […]. The background signal due to the sample color was measured at 405 nm with the PerkinElmer Wallac Victor3 spectrophotometer (PerkinElmer, Waltham, MA, USA) prior to adding the enzyme. Immediately following α-glucosidase addition, absorbance was measured at 405 nm 8 times at 1 min intervals.
(§1) The inhibitory concentration 50% (IC50) values were determined from the plots of percent inhibition versus log inhibitor concentration and calculated by logarithmic regression analysis from the mean inhibitory values.

[2] = biological target: T2, α-amylase from Aspergillus oryzae (Aspergillus oryzae, UniProt P0C1B3); assay: biochemical; conditions: for α-Amylase Selectivity: IC50 (α-glucosidase)/IC50 (α-amylase)
T2 construct: purchased Sigma Aldrich
Experimental: Briefly, 250 μL (0.4 mg/mL) of sample was preincubated with 250 μL of α-amylase solution for 10 min at 25 °C in one set of tubes. In another set of tubes α-amylase was preincubated with 250 μL of phosphate buffer (pH 6.9). 250 μL of starch solution at increasing concentrations (0.2–1% (w/v)) was added to both sets of reaction mixtures to start the reaction. The mixture was then incubated for 10 min at 25 °C and then boiled for 15 min after the addition of 250 μL of DNS to stop the reaction. The amount of reducing sugars released was determined spectrophotometrically using a maltose standard curve and converted to reaction velocities.
as §1

melting point: 120 to 122 °C
Structure (SMILES): O=C(c1ccccc1)C1C(c2cc3ccccc3o2)C2C3CCCCC3CN2[C@@]12C(=O)Nc1ccc(Cl)cc12 (stereo partly drawn) [Compound 5b, (3S)-1′-(Benzofuran-2-yl)-2′-benzoyl-5-chloro-1′,2′,5′,5a′,6′,7′,8′,9′,9a′,9b′-decahydrospiro[indoline-3,3′-pyrrolo[2,1-a]isoindol]-2-one]

melting point: 137 to 138 °C
Structure (SMILES): O=C(c1ccc(F)cc1)C1C(c2cc3ccccc3o2)C2C3CCCCC3CN2[C@@]12C(=O)Nc1ccccc12 (stereo partly drawn) [Compound 5m, (3S)-1′-(Benzofuran-2-yl)-2′-(4-fluorobenzoyl)-1′,2′,5′,5a′,6′,7′,8′,9′,9a′,9b′-decahydrospiro[indoline-3,3′-pyrrolo[2,1-a]isoindol]-2-one]

melting point: 118 to 120 °C
Structure (SMILES): O=C(c1ccc(Br)cc1)C1C(c2cc3ccccc3o2)C2C3CCCCC3CN2[C@@]12C(=O)Nc1ccccc12 (stereo partly drawn) [Compound 5n, (3S)-1′-(Benzofuran-2-yl)-2′-(4-bromobenzoyl)-1′,2′,5′,5a′,6′,7′,8′,9′,9a′,9b′-decahydrospiro[indoline-3,3′-pyrrolo[2,1-a]isoindol]-2-one]

melting point: 125 to 126 °C
Structure (SMILES): O=C(c1ccc(Cl)cc1)C1C(c2cc3ccccc3o2)C2C3CCCCC3CN2[C@@]12C(=O)Nc1ccc(Cl)cc12 (stereo partly drawn) [Compound 5o, (3S)-1′-(Benzofuran-2-yl)-5-chloro-2′-(4-chlorobenzoyl)-1′,2′,5′,5a′,6′,7′,8′,9′,9a′,9b′-decahydrospiro-[indoline-3,3′-pyrrolo[2,1-a]isoindol]-2-one]

melting point: 125 to 127 °C
Structure (SMILES): O=C(c1ccc(F)cc1)C1C(c2cc3ccccc3o2)C2C3CCCCC3CN2[C@@]12C(=O)Nc1ccc(Cl)cc12 (stereo partly drawn) [Compound 5d, (3S)-1′-(benzofuran-2-yl)-5-chloro-2′-(4-fluorobenzoyl)-1′,2′,5′,5a′,6′,7′,8′,9′,9a′,9b′-decahydrospiro-[indoline-3,3′-pyrrolo[2,1-a]isoindol]-2-one]

melting point: 125 to 127 °C
Structure (SMILES): O=C(c1ccc(F)cc1)C1C(c2cc3ccccc3o2)C2C3CCCCC3CN2[C@@]12C(=O)Nc1ccc(Br)cc12 (stereo partly drawn) [Compound 5e, (3S)-1′-(Benzofuran-2-yl)-5-bromo-2′-(4-fluorobenzoyl)-1′,2′,5′,5a′,6′,7′,8′,9′,9a′,9b′-decahydrospiro-[indoline-3,3′-pyrrolo[2,1-a]isoindol]-2-one]

melting point: 120 to 121 °C
Structure (SMILES): O=C(c1ccc(Br)cc1)C1C(c2cc3ccccc3o2)C2C3CCCCC3CN2[C@@]12C(=O)Nc1ccc(Cl)cc12 (stereo partly drawn) [Compound 5f, (3S)-1′-(Benzofuran-2-yl)-2′-(4-bromobenzoyl)-5-chloro-1′,2′,5′,5a′,6′,7′,8′,9′,9a′,9b′-decahydrospiro-[indoline-3,3′-pyrrolo[2,1-a]isoindol]-2-one]

Second part, the compound before the results:

Structure (SMILES): O=C(c1ccc(C(F)(F)F)cc1)C1C(c2cc3ccccc3o2)C2CSCN2[C@@]12C(=O)Nc1ccc(Cl)cc12 (stereo partly drawn) [Compound 5l, (3S)-7′-(Benzofuran-2-yl)-5-chloro-6′-(4-(trifluoromethyl)benzoyl)-1′,6′,7′,7a′-tetrahydro-3′H-spiro-[indoline-3,5′-pyrrolo[1,2-c]thiazol]-2-one]
IC50 [1]: 414.1 ± 0.52 µM | IC50 [2]: 558.07 ± 0.18 µM | α-Amylase Selectivity [2]: 0.74 | melting point: 110 to 112 °C

Structure (SMILES): O=C(c1ccc(Br)cc1)C1C(c2cc3ccccc3o2)C2CSCN2[C@@]12C(=O)Nc1ccc(Cl)cc12 (stereo partly drawn) [Compound 5i, (3S)-7′-(Benzofuran-2-yl)-6′-(4-bromobenzoyl)-5-chloro-1′,6′,7′,7a′-tetrahydro-3′H-spiro[indoline-3,5′-pyrrolo[1,2-c]thiazol]-2-one]
IC50 [1]: 684.12 ± 0.35 µM | α-Glucosidase Selectivity [1]: 1.13 | IC50 [2]: 779.08 ± 0.51 µM | α-Amylase Selectivity [2]: 0.87 | melting point: 144 to 145 °C

Structure (SMILES): O=C(c1ccc(Br)cc1)C1C(c2cc3ccccc3o2)C2CSCN2[C@@]12C(=O)Nc1ccc(Br)cc12 (stereo partly drawn) [Compound 5h, (3S)-7′-(Benzofuran-2-yl)-5-bromo-6′-(4-bromobenzoyl)-1′,6′,7′,7a′-tetrahydro-3′H-spiro[indoline-3,5′-pyrrolo[1,2-c]thiazol]-2-one]
IC50 [1]: 494.1 ± 0.04 µM | α-Glucosidase Selectivity [1]: 1.19 | IC50 [2]: 589.04 ± 0.25 µM | α-Amylase Selectivity [2]: 0.83 | melting point: 118 to 120 °C

Structure (SMILES): O=C(c1ccc(F)cc1)C1C(c2cc3ccccc3o2)C2CSCN2[C@@]12C(=O)Nc1ccc(Cl)cc12 (stereo partly drawn) [Compound 5c, (3S)-7′-(Benzofuran-2-yl)-5-chloro-6′-(4-fluorobenzoyl)-1′,6′,7′,7a′-tetrahydro-3′H-spiro[indoline-3,5′-pyrrolo[1,2-c]thiazol]-2-one]
IC50 [1]: 585.11 ± 0.02 µM | α-Glucosidase Selectivity [1]: 1.22 | IC50 [2]: 718 ± 0.27 µM | α-Amylase Selectivity [2]: 0.81 | melting point: 110 to 112 °C

Structure (SMILES): O=C(c1ccc(Cl)cc1)C1C(c2cc3ccccc3o2)C2CSCN2[C@@]12C(=O)Nc1ccc(Cl)cc12 (stereo partly drawn) [Compound 5p, (3S)-7′-(Benzofuran-2-yl)-5-chloro-6′-(4-chlorobenzoyl)-1′,6′,7′,7a′-tetrahydro-3′H-spiro[indoline-3,5′-pyrrolo[1,2-c]thiazol]-2-one]
IC50 [1]: 392.1 ± 1.07 µM | α-Glucosidase Selectivity [1]: 1.24 | IC50 [2]: 488 ± 1.11 µM | α-Amylase Selectivity [2]: 0.80 | melting point: 105 to 106 °C

Structure (SMILES): O=C(c1ccccc1)C1C(c2cc3ccccc3o2)C2CSCN2[C@@]12C(=O)Nc1ccc(Cl)cc12 (stereo partly drawn) [Compound 5a, (3S)-7′-(Benzofuran-2-yl)-6′-benzoyl-5-chloro-1′,6′,7′,7a′-tetrahydro-3′H-spiro[indoline-3,5′-pyrrolo[1,2-c]thiazol]-2-one]
IC50 [1]: 465.12 ± 0.12 µM | α-Glucosidase Selectivity [1]: 1.49 | IC50 [2]: 693.22 ± 0.1 µM | α-Amylase Selectivity [2]: 0.67 | melting point: 132 to 133 °C
